Measured values taken from patent US11524966B1 (Valo Early Discovery, Inc., priority 2017, dated 2022).
pIC50: −log10 of the molar value.

Biological target: T1, USP28 (His-tagged USP28-FL-mammalian) (Homo sapiens, UniProt Q96RU2)
T1 construct: Expression of USP28 (1-1077)-TEV-6*His (pTT5 vector); made in house; host or cells: Expi293f cells (pTT5 vector)
T1 sequence (Q96RU2 1-1077): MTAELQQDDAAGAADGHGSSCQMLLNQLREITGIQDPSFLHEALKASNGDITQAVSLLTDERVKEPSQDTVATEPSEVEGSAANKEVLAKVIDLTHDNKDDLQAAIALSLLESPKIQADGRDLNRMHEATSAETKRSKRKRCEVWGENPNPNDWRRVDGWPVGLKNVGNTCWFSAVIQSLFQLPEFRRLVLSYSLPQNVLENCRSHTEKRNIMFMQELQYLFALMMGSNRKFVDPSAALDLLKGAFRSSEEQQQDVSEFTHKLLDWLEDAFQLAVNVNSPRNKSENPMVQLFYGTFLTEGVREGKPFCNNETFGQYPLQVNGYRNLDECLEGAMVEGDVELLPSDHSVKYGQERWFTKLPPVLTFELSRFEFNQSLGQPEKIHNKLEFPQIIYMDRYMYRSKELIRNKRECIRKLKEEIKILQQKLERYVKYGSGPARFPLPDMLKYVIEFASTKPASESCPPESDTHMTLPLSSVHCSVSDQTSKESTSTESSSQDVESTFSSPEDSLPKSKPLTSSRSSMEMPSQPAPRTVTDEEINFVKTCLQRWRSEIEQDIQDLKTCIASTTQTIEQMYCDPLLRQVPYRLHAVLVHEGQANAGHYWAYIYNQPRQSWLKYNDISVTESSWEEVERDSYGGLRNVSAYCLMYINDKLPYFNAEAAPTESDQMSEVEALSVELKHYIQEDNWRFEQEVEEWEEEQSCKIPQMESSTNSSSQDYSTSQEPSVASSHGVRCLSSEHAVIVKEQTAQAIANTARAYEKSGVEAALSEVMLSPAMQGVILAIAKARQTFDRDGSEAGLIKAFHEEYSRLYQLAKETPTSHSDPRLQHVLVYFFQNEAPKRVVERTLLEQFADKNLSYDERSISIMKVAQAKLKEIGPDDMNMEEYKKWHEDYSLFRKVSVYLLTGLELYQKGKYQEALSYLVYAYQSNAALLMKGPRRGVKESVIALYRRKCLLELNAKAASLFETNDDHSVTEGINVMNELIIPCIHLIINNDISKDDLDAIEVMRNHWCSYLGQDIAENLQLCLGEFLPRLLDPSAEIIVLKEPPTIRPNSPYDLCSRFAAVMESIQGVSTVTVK
Experiment: Ubiquitin-Rhodamine 110 Assay for USP28 Activity, Example A-1(a)
Assay type: biochemical
Conditions: Ubiquitin-Rhodamine 110 assay, Example A-1(a); read-out: USP28 A-1(a) IC50 range
Description: Example A-1(a): Biochemical Assay: Ubiquitin-Rhodamine 110 Assay for USP28 Activity
The assay was performed in a final volume of 9 μL in assay buffer containing 20 mM Tris-HCl (pH 8.0, (1M Tris-HCl, pH 8.0 solution; Corning 46-031-CM)), 3 mM BME (2-Mercaptoethanol; Sigma 63689-25ML-F), 0.03% BGG (0.22 μM filtered, Sigma, G7516-25G), and 0.01% Triton X-100 (Sigma, T9284-10L). Nanoliter quantities of 10-point, 3-fold serial dilution in DMSO was pre-dispensed into 1536 assay plates (Corning, #3724BC) for a final test concentration of 25 μM to 1.3 nM, top to lowest dose, respectively. Enzyme USP28, construct His-tagged USP28-FL-mammalian, (protein expression and purification procedure described below). Concentration and incubation times were optimized for the maximal signal-to-background while maintaining initial velocity conditions at a fixed substrate concentration. The final concentration of the enzyme in the assay was 75 μM. Final substrate (Ub-Rh110; Ubiquitin-Rhodamine 110, UbiQ-126) concentration was 25 nM with [Ub-Rh110]<<Km. 3 μL of 2× enzyme was added to assay plates (pre-stamped with compound) preincubated with […] for 30 minutes and then 3 μL of 2×Ub-Rh110 was added to assay plates. Plates were incubated for 45 minutes at room temperature before addition of 3 μL of stop solution (final concentration of 10 mM citric acid (Sigma, 251275-500G)). Fluorescence was read on the Envision (Excitation at 485 nm and Emission at 535 nm; Perkin Elmer) or on the PheraSTAR (Excitation at 485 nm and Emission at 535 nm; BMG Labtech).
Procedure for the Protein Expression and Purification for Construct His-Tagged USP28-FL-Mammalian
Expression of USP28 (1-1077)-TEV-6*His (pTT5 vector) was carried out in Expi293f cells (sequence derived from uniprot ID: Q96RU2-1). Cells were re-suspended in lysis buffer B 50 mM Bicine, pH 8.0, 20 mM NaCl, 5% glycerol, 0.1% CHAPS, 5 mM β-ME, 1 mM PMSF, 1 ug/ml Leupeptin, 1 ug/ml Pepstatin) and lysed by sonication. Insoluble material was removed by centrifugation and the supernatant was loaded onto a Ni-NTA column (GE Healthcare) equilibrated with Ni Buffer A (50 mM Bicine, pH 8.0, 20 mM NaCl, 5% glycerol, 0.1% CHAPS, 5 mM β-ME.) and washed with Ni Buffer A+20 mM imidazole until A280 reached baseline. The protein was eluted with Ni Buffer B (50 mM Bicine, pH 8.0, 20 mM NaCl, 5% glycerol, 0.1% CHAPS, 5 mM β-ME, 300 mM imidazole.). The protein was further purified using a Superdex™ 200 10/300 GL column (GE Healthcare) equilibrated with 50 mM Bicine, pH 8.0, 20 mM NaCl, 5% glycerol, 0.1% CHAPS, 5 mM β-ME. The protein was concentrated to 2.5 mg ml^−1, flash-frozen in liquid N2 and stored at −80° C.
For assay formats Example A-1(a), A-1(b), and A-2, data were reported as percent inhibition compared with control wells based on the following equation: % inh=1−((FLU−AveLow)/(AveHigh−AveLow)) where FLU=measured Fluorescence, AveLow=average Fluorescence of no enzyme control (n=16), and AveHigh=average Fluorescence of DMSO control (n=16). IC50 values were determined by curve fitting of the standard 4 parameter logistic fitting algorithm included in the Activity Base software package: IDBS XE Designer Model 205. Data is fitted using the Levenburg Marquardt algorithm.

Cc1ccc2c(N)c(C(=O)N[C@H]3CCc4nc(N5CCN[C@H](C(F)F)C5)ccc4C3)sc2n1 [Example 374, 3-amino-N-[(6S)-2-[(3S)-3-(difluoromethyl)piperazin-1-yl]-5,6,7,8-tetrahydroquinolin-6-yl]-6-methylthieno[2,3-b]pyridine-2-carboxamide]
pIC50: 6.70 to 7.30

CO[C@]12CCN[C@@H]1CN(c1ccc3c(c1)OC[C@H](NC(=O)c1sc4nc(C)ccc4c1N)C3)C2 [Example 290, N-[(3R )-7-[(3aS,6aR)-3a-methoxy-octahydropyrrolo[2,3-c]pyrrol-5-yl]-3,4-dihydro-2H-1-benzopyran-3-yl]-3-amino-6-methylthieno[2,3-b]pyridine-2-carboxamide]
pIC50: 7.30 to 9.00

Cc1ccc2c(N)c(C(=O)N[C@H]3CCc4nc(N5C[C@H]6COC[C@@]6(N)C5)ccc4C3)sc2n1 [Example 395, N-[(6S)-2-[(3aS,6aR)-3a-amino-hexahydro-1H-furo[3,4-c]pyrrol-5-yl]-5,6,7,8-tetrahydroquinolin-6-yl]-3-amino-6-methylthieno[2,3-b]pyridine-2-carboxamide]
pIC50: 6.70 to 7.30

COC[C@@]1(N)CCN(c2ccc3c(n2)CC[C@H](NC(=O)c2sc4nc(C)ccc4c2N)C3)C1 [Example 388, 3-amino-N-[(6S)-2-[(3R)-3-amino-3-(methoxymethyl)pyrrolidin-1-yl]-5,6,7,8-tetrahydroquinolin-6-yl]-6-methylthieno[2,3-b]pyridine-2-carboxamide]
pIC50: 6.70 to 7.30

CN[C@H]1CN(c2ccc3c(n2)CC[C@H](NC(=O)c2sc4nc(C)ccc4c2N)C3)C[C@@H]1COC (single isomer, unassigned) [Example 26-1]
pIC50: 6.70 to 7.30

Cc1ccc2c(N)c(C(=O)N[C@H]3CCc4nc(N5C[C@@H](CF)[C@H](N)C5)ccc4C3)sc2n1 [Example 385, 3-amino-N-[(6S)-2-[(3S,4R)-3-amino-4-(fluoromethyl)pyrrolidin-1-yl]-5,6,7,8-tetrahydroquinolin-6-yl]-6-methylthieno[2,3-b]pyridine-2-carboxamide]
pIC50: 6.70 to 7.30

Cc1ccc2c(N)c(C(=O)N[C@H]3CCc4nc(N5C6CC(N)CC5CS(=O)(=O)C6)ccc4C3)sc2n1 (stereo partly drawn) [Example 429, 3-amino-N-[(6S)-2-{7-amino-3,3-dioxo-3λ^6-thia-9-azabicyclo[3.3.1]nonan-9-yl}-5,6,7,8-tetrahydroquinolin-6-yl]-6-methylthieno[2,3-b]pyridine-2-carboxamide]
pIC50: 7.30 to 9.00

Cc1ccc2c(N)c(C(=O)N[C@H]3CCc4nc(N5CC[C@](N)(CO)C5)ccc4C3)sc2n1 [Example 386, 3-amino-N-[(6S)-2-[(3R)-3-amino-3-(hydroxymethyl)pyrrolidin-1-yl]-5,6,7,8-tetrahydroquinolin-6-yl]-6-methylthieno[2,3-b]pyridine-2-carboxamide]
pIC50: 6.70 to 7.30

Cc1ccc2c(N)c(C(=O)N[C@H]3CCc4nc(N5C[C@H](N)[C@]6(CCOC6)C5)ccc4C3)sc2n1 [Example 430, 3-amino-N-[(6S)-2-[(5S,9R)-9-amino-2-oxa-7-azaspiro[4.4]nonan-7-yl]-5,6,7,8-tetrahydroquinolin-6-yl]-6-methylthieno[2,3-b]pyridine-2-carboxamide]
pIC50: 6.70 to 7.30

Cc1cc(C)c2c(N)c(C(=O)N[C@@H]3CCc4nc(N5C[C@H](OC(C)C)[C@@H](N)C5)ncc4C3)sc2n1 (single isomer, unassigned) [Example 31-2]
pIC50: < 5.70

Cc1ccc2c(N)c(C(=O)N[C@H]3COc4cc(N5CC6CNCC(C5)C6(F)F)ncc4C3)sc2n1 [Example 114, 3-amino-N-[(3R)-7-{9,9-difluoro-3,7-diazabicyclo[3.3.1]nonan-3-yl}-2H,3H,4H-pyrano[3,2-c]pyridin-3-yl]-6-methylthieno[2,3-b]pyridine-2-carboxamide]
pIC50: 7.30 to 9.00

Cc1ccc2c(N)c(C(=O)N[C@H]3CCc4nc(N5CC[C@@]6(C5)OCC[C@@H]6N)ccc4C3)sc2n1 [Example 407, 3-amino-N-[(6S)-2-[(4S,5S)-4-amino-1-oxa-7-azaspiro[4.4]nonan-7-yl]-5,6,7,8-tetrahydroquinolin-6-yl]-6-methylthieno[2,3-b]pyridine-2-carboxamide]
pIC50: 6.70 to 7.30

Cc1ccc2c(N)c(C(=O)N[C@H]3CCc4nc(N5C[C@H](C(F)F)[C@@H](N)C5)ncc4C3)sc2n1 [Example 380, 3-amino-N-[(6S)-2-[(3R,4S)-3-amino-4-(difluoromethyl)pyrrolidin-1-yl]-5,6,7,8-tetrahydroquinazolin-6-yl]-6-methylthieno[2,3-b]pyridine-2-carboxamide]
pIC50: 6.70 to 7.30

Cc1ccc2c(N)c(C(=O)N[C@H]3CCc4nc(N5C[C@@H](N)C6(C5)OCCO6)ccc4C3)sc2n1 (single isomer, unassigned) [Example 29-2]
pIC50: 5.70 to 6.70

Cc1ccc2c(N)c(C(=O)N[C@H]3COc4cc(N5CC[C@@]6(C5)OCC[C@@H]6N)ccc4C3)sc2n1 [Example 411, 3-amino-N-[(3R)-7-[(4S,5S)-4-amino-1-oxa-7-azaspiro[4.4]nonan-7-yl]-3,4-dihydro-2H-1-benzopyran-3-yl]-6-methylthieno[2,3-b]pyridine-2-carboxamide]
pIC50: 7.30 to 9.00

CCn1ccc2cc(C(=O)N[C@H]3CCc4nc(N5C[C@@H](N)[C@H](C(F)(F)F)C5)ccc4C3)cnc21 [Example 422, N-[(6S)-2-[(3S,4R)-3-amino-4-(trifluoromethyl)pyrrolidin-1-yl]-5,6,7,8-tetrahydroquinolin-6-yl]-1-ethyl-1H-pyrrolo[2,3-b]pyridine-5-carboxamide]
pIC50: 5.70 to 6.70

Cc1ccc2c(N)c(C(=O)N[C@H]3CCc4nc(N5CC[C@]6(C5)OCC[C@@H]6N)ccc4C3)sc2n1 [Example 406, 3-amino-N-[(6S)-2-[(4S,5R)-4-amino-1-oxa-7-azaspiro[4.4]nonan-7-yl]-5,6,7,8-tetrahydroquinolin-6-yl]-6-methylthieno[2,3-b]pyridine-2-carboxamide]
pIC50: 5.70 to 6.70
